For assay [1], the system named is A549 (human lung carcinoma) cells. In words: Cell Viability Assay (CellTiter-Glo), A549. In kind it is cell-based. To be noted: Homo sapiens, A549, 72 h. Put shortly:
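Cells grown in RPMI 1640 with 10% FBS were seeded at 1.67E+04 cells/mL and left overnight at 37° C., 5% CO2. They were then exposed to serially diluted compound for 72 h, after which CellTiter-Glo luminescence was read, normalized to DMSO, and fitted to a 4-parameter logistic model for IC50.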

Assay [2] deals with MIA PaCa-2 (human pancreatic carcinoma) cells. The assay can be described thus: Cell Viability Assay (CellTiter-Glo), MIA PaCa-2. The format is cell-based. To be noted: Homo sapiens, MIA PaCa-2, 72 h. The method, then:
Serially-diluted compound or DMSO was added to the cells, and plates were incubated at 37° C., 5% CO2 for 72 h. Cell viability was measured using a CellTiter-Glo® Luminescent Cell Viability Assay kit (Promega) according to the manufacturer's protocol. The luminescence signal of treated samples was normalized to DMSO control, and data were analyzed using a 4-parameter logistic model to calculate IC50 values.
On the technique in general: ATP-based viability assays read luminescence as a measure of living cells.

Assay [3] addresses KRAS G12C (Homo sapiens (Human), UniProt P01116, C118A/G12C). In words: 2 h coupled exchange assay. In kind it is biochemical. To be noted: Avg 2 h Coupled exchange IC50, 2 h compound pre-incubation, SOS-mediated nucleotide exchange. The method, then:
The term “2 h coupled exchange assay” or “20 h coupled exchange assay” as used herein refers to the assay described in the Section entitled “BIOLOGICAL EVALUATION.”

Data on 22 compounds can be found in patent US20240059703A1 (AMGEN INC., priority 2021, published 2024).

Molecules are shown by their SMILES. Where only a bound is given, the exact number is not on record here.

Chain of KRAS G12C (P01116 other isoform, or with tags, fused parts or gaps G12C/C118A): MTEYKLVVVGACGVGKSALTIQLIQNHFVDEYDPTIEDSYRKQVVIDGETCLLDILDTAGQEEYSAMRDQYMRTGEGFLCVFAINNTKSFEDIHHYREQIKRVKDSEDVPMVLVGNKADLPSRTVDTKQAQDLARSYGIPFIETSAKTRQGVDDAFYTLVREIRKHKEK

One may read the IC50 as the concentration that inhibits the measured activity by half. A lower IC50 goes with higher potency. For `C=CC(=O)N1CC2(CCN(c3nc4c(N5CCN(C)CC5)ccn4c(-c4c(C)ccc5[nH]ncc45)c3C#N)C2)C1` [Example 1-53], the IC50 was greater than 50000 nM in assay [1], 13400 nM in assay [2] and 99 nM in assay [3].
As for `C=CC(=O)N1CC2(CCN(c3nc4cc(-c5nccs5)cn4c(-c4c(C)ccc5[nH]ncc45)c3C#N)C2)C1` [Example 1-54], the IC50 in assay [1] was greater than 5000 nM; in assay [2], 976 nM; in assay [3], 122 nM.
For `C=CC(=O)N1CC2(CCN(c3nc4c(c(-c5c(C)ccc6[nH]ncc56)c3C#N)CCC(C)C4)C2)C1` (stereo not drawn) [Example 2-1, 2-(2-acryloyl-2,6-diazaspiro[3.4]octan-6-yl)-7-methyl-4-(5-methyl-1H-indazol-4-yl)-5,6,7,8-tetrahydroquinoline-3-carbonitrile] the same measures were 3100 nM, 430 nM and 42 nM.
With `C=CC(=O)N1CC2(CCN(c3nc4ccccc4c(-c4c(C)ccc5cn[nH]c45)c3C#N)C2)C1` [Example 2-2, 4-(6-methyl-1H-indazol-7-yl)-2-(2-(2-propenoyl)-2,6-diazaspiro[3.4]octan-6-yl)-3-quinolinecarbonitrile], the results for the IC50 in assay [1], in assay [2] and in assay [3] were 6250 nM, 1730 nM and 694 nM, respectively.
In the case of `C=CC(=O)N1CC2(CCN(c3nc4ccccc4c(-c4cccc5sc(N)nc45)c3C#N)C2)C1` [Example 2-3, 4-(2-amino-1,3-benzothiazol-4-yl)-2-(2-(2-propenoyl)-2,6-diazaspiro[3.4]octan-6-yl)-3-quinolinecarbonitrile], the figures for the half-maximal inhibitory concentration (IC50) in assay [1], in assay [2] and in assay [3] were 3120 nM, 693 nM and 537 nM, respectively.
Consider `C=CC(=O)N1CC2(CCN(c3nc4ccccc4c(-c4cc(O)cc5ccccc45)c3C#N)C2)C1` [Example 2-4, 4-(3-hydroxy-1-naphthalenyl)-2-(2-(2-propenoyl)-2,6-diazaspiro[3.4]octan-6-yl)-3-quinolinecarbonitrile], for which the concentration for half-maximal inhibition (IC50) in assay [1] worked out at 6250 nM; in assay [2], 2060 nM; in assay [3], 173 nM.
For `C=CC(=O)N1CC2(C1)CN(c1nc3c(c(-c4c(C)ccc5[nH]ncc45)c1C#N)CCC(C)C3)CC2(F)F` (stereo not drawn) [Example 2-5, 2-(8,8-difluoro-2-(2-propenoyl)-2,6-diazaspiro[3.4]octan-6-yl)-7-methyl-4-(5-methyl-1H-indazol-4-yl)-5,6,7,8-tetrahydro-3-quinolinecarbonitrile] the same measures were 6250 nM, 943 nM and 42 nM.
Regarding `C=CC(=O)N1CC2(CCN(c3nc4ccccc4c(-c4c(C)c(C)cc5[nH]ncc45)c3C#N)C2)C1` [Example 2-6, 4-(5,6-dimethyl-1H-indazol-4-yl)-2-(2-(2-propenoyl)-2,6-diazaspiro[3.4]octan-6-yl)-3-quinolinecarbonitrile], the IC50 in assay [1] came to 6250 nM; in assay [2] it was 237 nM; in assay [3], 56 nM.
Consider `C=CC(=O)N1CC2(CCN(c3nc4c(c(-c5c(C)ccc6[nH]ncc56)c3C#N)CCCC4)C2)C1` [Example 2-8, 4-(5-methyl-1H-indazol-4-yl)-2-(2-(2-propenoyl)-2,6-diazaspiro[3.4]octan-6-yl)-5,6,7,8-tetrahydro-3-quinolinecarbonitrile], for which the figures for the IC50 in assay [1], in assay [2] and in assay [3] were 3640 nM, 554 nM and 59 nM, respectively.
As for `C=CC(=O)N1CC2(CCN(c3nc4c(c(-c5cc(O)ccc5F)c3C#N)CCCC4)C2)C1` [Example 2-9, 4-(2-fluoro-5-hydroxyphenyl)-2-(2-(2-propenoyl)-2,6-diazaspiro[3.4]octan-6-yl)-5,6,7,8-tetrahydro-3-quinolinecarbonitrile], the IC50 in assay [1] was found to be 6120 nM; in assay [2], 2970 nM; in assay [3], 410 nM.
With `C=CC(=O)N1CC2(CCN(c3nc4c(c(-c5c(C)ccc6[nH]ncc56)c3C#N)CCCCC4)C2)C1` [Example 2-10, 4-(5-methyl-1H-indazol-4-yl)-2-(2-(2-propenoyl)-2,6-diazaspiro[3.4]octan-6-yl)-6,7,8,9-tetrahydro-5H-cyclohepta[b]pyridine-3-carbonitrile], the IC50 was greater than 5000 nM in assay [1], 452 nM in assay [2] and 44 nM in assay [3].
As for `C=CC(=O)N1CC2(CCN(c3nc4c(c(-c5cccc6cc(O)ccc56)c3C)CCC(C)(C)C4)C2)C1` [Example 2-13, 1-(6-(4-(6-hydroxy-1-naphthalenyl)-3,7,7-trimethyl-5,6,7,8-tetrahydro-2-quinolinyl)-2,6-diazaspiro[3.4]octan-2-yl)-2-propen-1-one], the IC50 in assay [1] was greater than 5000 nM; in assay [2] it was 403 nM; in assay [3], 150 nM.
As to `C=CC(=O)N1CC2(CCN(c3nc4c(c(-c5c(C)ccc6cnn(C)c56)c3C)CCC(C)(C)C4)C2)C1` [Example 2-19, 1-(6-(4-(1,6-dimethyl-1H-indazol-7-yl)-3,7,7-trimethyl-5,6,7,8-tetrahydro-2-quinolinyl)-2,6-diazaspiro[3,4]octan-2-yl)-2-propen-1-one], the concentration for half-maximal inhibition (IC50) in assay [1] was greater than 5000 nM; in assay [2], 392 nM; in assay [3] it was 104 nM.
Consider `C=CC(=O)N1CC2(CCN(c3nc4c(c(-c5cc(O)cc6ccccc56)c3C)CCC(C)(C)C4)C2)C1` [Example 2-27, 1-(6-(4-(3-hydroxy-1-naphthalenyl)-3,7,7-trimethyl-5,6,7,8-tetrahydro-2-quinolinyl)-2,6-diazaspiro[3,4]octan-2-yl)-2-propen-1-one], for which the figures for the IC50 in assay [1], in assay [2] and in assay [3] were greater than 5000 nM, 214 nM and 102 nM, respectively.
As to `C=CC(=O)N1CC2(CCN(c3nc4c(c(-c5c(C)ccc6[nH]ncc56)c3C)CCC(C)(C)C4)C2)C1` [Example 2-28, 1-(6-(3,7,7-trimethyl-4-(5-methyl-1H-indazol-4-yl)-5,6,7,8-tetrahydro-2-quinolinyl)-2,6-diazaspiro[3.4]octan-2-yl)-2-propen-1-one], the IC50 in assay [1] was greater than 5000 nM; in assay [2] it was 187 nM; in assay [3] it was 67 nM.
For `C=CC(=O)N1CC2(CCN(c3nc4c(c(-c5c(C(F)(F)F)ccc6[nH]ncc56)c3C#N)C[C@H]3C[C@@H]4C3(C)C)C2)C1` [Example 2-31, (1R,9R)-10,10-dimethyl-4-(2-(2-propenoyl)-2,6-diazaspiro[3.4]octan-6-yl)-6-(5-(trifluoromethyl)-1H-indazol-4-yl)-3-azatricyclo[7.1.1.0^2,7]undeca-2,4,6-triene-5-carbonitrile] the same measures were 2780 nM, 54 nM and 53 nM.
`C=CC(=O)N1CC2(CCN(c3nc4c(c(-c5c(C)c(Cl)cc6[nH]ncc56)c3C)COC(C)(C)C4)C2)C1` [Example 2-36, 1-(6-(4-(6-chloro-5-methyl-1H-indazol-4-yl)-3,7,7-trimethyl-7,8-dihydro-5H-pyrano[4,3-b]pyridin-2-yl)-2,6-diazaspiro[3.4]octan-2-yl)-2-propen-1-one]: the values for the concentration for half-maximal inhibition (IC50) in assay [1], in assay [2] and in assay [3] were greater than 5000 nM, 13 nM and 20 nM, respectively.
`C=CC(=O)N1CC2(CCN(c3nc4c(c(-c5cc(O)cc6ccccc56)c3C#N)C3CCC4C3)C2)C1` [Example 2-38, (1R,8S)-6-(3-hydroxy-1-naphthalenyl)-4-(2-(2-propenoyl)-2,6-diazaspiro[3.4]octan-6-yl)-3-azatricyclo[6.2.1.0^2,7]undeca-2,4,6-triene-5-carbonitrile|(1S, 8R)-6-(3-hydroxy-1-naphthalenyl)-4-(2-(2-propenoyl)-2,6-diazaspiro[3.4]octan-6-yl)-3-azatricyclo[6.2.1.0^2,7]undeca-2,4,6-triene-5-carbonitrile]: the IC50 in assay [1] was 3420 nM; in assay [2], 157 nM; in assay [3] it was 67 nM.
For `C=CC(=O)N1CC2(CCN(c3nc4c(c(-c5cc(O)cc6ncccc56)c3C#N)C[C@H]3C[C@@H]4C3(C)C)C2)C1` [Example 2-42, (1R,9R)-6-(7-hydroxy-5-quinolinyl)-10,10-dimethyl-4-(2-(2-propenoyl)-2,6-diazaspiro[3,4]octan-6-yl)-3-azatricyclo[7.1.1.0^2,7]undeca-2,4,6-triene-5-carbonitrile] the same measures were greater than 5000 nM, 175 nM and 28 nM.
Take `C=CC(=O)N1CC2(CCN(c3nc4cc(OC)ccc4c(-c4c(C)ccc5[nH]ncc45)c3C)C2)C1` [Example 2-48, 1-(6-(7-methoxy-3-methyl-4-(5-methyl-1H-indazol-4-yl)-2-quinolinyl)-2,6-diazaspiro[3,4]octan-2-yl)-2-propen-1-one]: the IC50 was greater than 5000 nM in assay [1], 885 nM in assay [2] and 109 nM in assay [3].
For `C=CC(=O)N1CC2(CCN(c3nc4cc(OC)ccc4c(-c4c(C)ccc5cn[nH]c45)c3C)C2)C1` [Example 2-49, 1-(6-(7-methoxy-3-methyl-4-(6-methyl-1H-indazol-7-yl)-2-quinolinyl)-2,6-diazaspiro[3.4]octan-2-yl)-2-propen-1-one] the same measures were greater than 5000 nM, 1210 nM and 323 nM.
Regarding `C=CC(=O)N1CC2(CCN(c3nc4cc(OC)ccc4c(-c4c(C)ccc5cnn(C)c45)c3C)C2)C1` [Example 2-50, 1-(6-(4-(1,6-dimethyl-1H-indazol-7-yl)-7-methoxy-3-methyl-2-quinolinyl)-2,6-diazaspiro[3,4]octan-2-yl)-2-propen-1-one], the results for the IC50 in assay [1], in assay [2] and in assay [3] were greater than 5000 nM, 2610 nM and 466 nM, respectively.
